Where two headings read alike, the source gives them in different places.
Columns and labels:
[1] = system: Rhodococcus rhodochrous NCIMB 40757 nitrilase; experiment: Nitrilase kinetics of whole cells (acrylonitrile to ammonium acrylate); format: biochemical; settings: for Km: 30° C.
Method: A novel nitrilase is characterised by having Km for acrylonitrile below 500 μM. Throughout this specification Km refers to Km measured at pH 7.0. […] In particular we use the conditions of Example 6 below. […] Microbial., 135 3153-3164 and those described for lactate dehydrogenase by Wagner (1990) Tibtech., 8, 263-270 will yield nitrilase having Km values up to 60 or 100, or perhaps 300 μM, and Km values down to. 9.4 and even 3.8 μM.
A novel nitrilase of the invention is characterised by having Ki for ammonium acrylate of at least 100 mM, preferably at least 150 or 200, more preferably at least 250 mM. Throughout this specification Ki refers to Ki measured at pH 7.0. […] Preferably measurement is under the conditions given in Example 7 below. […] It is envisaged that standard techniques and selection procedures, eg mutagenesis, will yield nitrilase having Ki for ammonium acrylate up to 300 mM or even 800 mM or greater.
(§1) The cells of the Rhodococcus rhodochrous strain grown as described in Example 1 were suspended in solutions of 50 mM pH 7 sodium phosphate buffer at 30° C. containing the concentrations of acrylonitrile shown in the table below. Samples were taken over time to determine the acrylonitrile, acrylamide and ammonium acrylate concentrations in the cell suspensions.
as §1, with “1.2 M ammonium acrylate” for “50 mM pH 7 sodium phosphate buffer”

[2] = biological target: T1, Rhodococcus rhodochrous K22 nitrilase (Rhodococcus rhodochrous, UniProt Q02068); settings: read-out: Km (acrylonitrile); reported in J. Bacteriol. 172, 9, 4807-4815; cited from earlier work
T1 sequence (Q02068 1-383): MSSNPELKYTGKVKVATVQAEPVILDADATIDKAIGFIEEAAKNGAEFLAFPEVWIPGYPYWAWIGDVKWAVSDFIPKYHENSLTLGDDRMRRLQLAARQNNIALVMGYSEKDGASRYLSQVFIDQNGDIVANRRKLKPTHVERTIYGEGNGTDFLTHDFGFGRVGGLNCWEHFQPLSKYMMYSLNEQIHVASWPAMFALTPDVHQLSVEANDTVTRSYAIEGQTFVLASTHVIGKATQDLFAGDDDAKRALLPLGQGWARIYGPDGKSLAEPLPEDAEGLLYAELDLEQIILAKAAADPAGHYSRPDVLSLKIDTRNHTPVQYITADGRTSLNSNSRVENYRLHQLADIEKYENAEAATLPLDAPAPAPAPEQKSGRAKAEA

[3] = system: Fusarium oxysporum f.sp. melonis nitrilase; settings: read-out: Km (acrylonitrile), cited from earlier work

SMILES	Km ([1]; whole cell form, 50 mM pH 7 sodium phosphate buffer, read-out: Km for acrylonitrile) [µM]	Km ([1]; whole cells in 1.2 M ammonium acrylate, read-out: apparent Km (acrylonitrile) in 1.2 M ammonium acrylate) [µM]	Km [2] [µM]	Km ([3]; Goldlust and Bohak (1989)) [µM]	Km ([3]; reported in Biotech. Appl. Biochem., 1989, 11, 581-601) [µM]	ratio (Ki for ammonium acrylate)/(Km for acrylonitrile) ([1]; initial experiments)
C=CC#N [acrylonitrile]	30.6	145	1140	17000	17000	–
C=CC(=O)O [ammonium acrylate]	–	–	–	–	–	greater than 10000

Source: patent US5998180A, “Nitrilase from Rhodoccus rhodochrous for converting acrylonitrile directly to acrylic acid” (priority 1995, dated 1999)
